Tests used:
[1] = DRUGMATRIX: Sodium/nucleoside co-transporter radioligand binding (ligand: nitrobenzylthioinosine); format: cell membranes, Cavia porcellus, Dunkin-Hartley, Cerebral cortex, Membrane; conditions: Not Active = under 50% inhibition at 10 µM
[2] = DRUGMATRIX: Serotonin (5-Hydroxytryptamine) 5-HT3 radioligand binding (ligand: [3H] GR-65630); format: cell membranes, Membrane; conditions: hek293; Not Active = under 50% inhibition at 10 µM
Cannabinoid receptor 1 = Cannabinoid receptor 1 (Homo sapiens, UniProt P21554); format: cell membranes, Chem-1, Membrane; conditions: chem-1; further: in other assays of this panel Not Active means under 50% inhibition at 10 µM
[3] = target: T1, C-X-C chemokine receptor type 1 (Homo sapiens, UniProt P25024); further: in other assays of this panel Not Active means under 50% inhibition at 10 µM
T1 sequence (P25024 whole entry): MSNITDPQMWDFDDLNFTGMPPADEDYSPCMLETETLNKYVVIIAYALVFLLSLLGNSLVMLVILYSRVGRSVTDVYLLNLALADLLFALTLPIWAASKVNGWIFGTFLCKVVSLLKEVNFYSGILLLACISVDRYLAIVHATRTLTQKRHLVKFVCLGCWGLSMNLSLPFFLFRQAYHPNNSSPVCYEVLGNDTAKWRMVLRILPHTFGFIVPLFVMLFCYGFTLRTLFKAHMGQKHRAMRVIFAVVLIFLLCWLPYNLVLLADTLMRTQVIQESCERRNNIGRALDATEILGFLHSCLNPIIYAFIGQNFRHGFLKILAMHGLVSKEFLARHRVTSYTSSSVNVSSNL

D(4) dopamine receptor = target: T2, D(4) dopamine receptor (Homo sapiens, UniProt P21917); experiment: DRUGMATRIX: Dopamine D4.2 radioligand binding (ligand: [3H] Spiperone); format: cell membranes, Membrane; conditions: cho-k1; Not Active = under 50% inhibition at 10 µM
T2 sequence (P21917 whole entry): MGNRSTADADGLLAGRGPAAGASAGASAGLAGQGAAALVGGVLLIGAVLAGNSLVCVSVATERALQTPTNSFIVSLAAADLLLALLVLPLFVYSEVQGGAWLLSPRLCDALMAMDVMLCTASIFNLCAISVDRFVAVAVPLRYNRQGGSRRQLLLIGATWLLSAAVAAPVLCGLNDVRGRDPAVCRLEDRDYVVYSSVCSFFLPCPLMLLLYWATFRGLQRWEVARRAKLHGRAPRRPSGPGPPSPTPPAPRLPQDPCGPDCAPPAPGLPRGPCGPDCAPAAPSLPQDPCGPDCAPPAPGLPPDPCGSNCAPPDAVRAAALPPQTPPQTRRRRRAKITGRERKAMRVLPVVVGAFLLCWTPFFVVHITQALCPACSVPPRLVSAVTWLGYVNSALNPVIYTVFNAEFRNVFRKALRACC

[4] = DRUGMATRIX: Interleukin IL-1 radioligand binding (ligand: [125I] interleukin 1beta); format: cell membranes, Membrane; conditions: nih3t3; Not Active = under 50% inhibition at 10 µM
Leukotriene C4 synthase = target: T3, Leukotriene C4 synthase (Cavia porcellus, UniProt A6XA80); format: tissue-based, Lung;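 further: enzyme inhibition assay of leukotriene C4 synthase, using LTA4 as the substrate; in other assays of this panel Not Active means under 50% inhibition at 10 µM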
T3 sequence (A6XA80 whole entry): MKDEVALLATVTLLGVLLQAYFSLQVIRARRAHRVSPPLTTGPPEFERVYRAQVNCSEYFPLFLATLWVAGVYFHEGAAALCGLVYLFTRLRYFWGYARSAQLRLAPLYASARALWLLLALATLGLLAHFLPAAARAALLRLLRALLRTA

Mu-type opioid receptor = Mu-type opioid receptor (Homo sapiens, UniProt P35372); experiment: DRUGMATRIX: Opiate mu (OP3, MOP) radioligand binding (ligand: [3H] Diprenorphine); format: cell membranes, CHO-K1, Membrane; conditions: cho-k1; Not Active = under 50% inhibition at 10 µM
[5] = target: Platelet-activating factor receptor (Homo sapiens, UniProt P25105); format: tissue-based; further: in other assays of this panel Not Active means under 50% inhibition at 10 µM
[6] = DRUGMATRIX: Potassium Channel [KATP] radioligand binding (ligand: [3H] Glyburide); format: cell membranes, Membrane; conditions: hit-t15; Not Active = under 50% inhibition at 10 µM
[7] = target: Mitogen-activated protein kinase 3 (Homo sapiens, UniProt P27361); experiment: DRUGMATRIX: Protein Serine/Threonine Kinase, ERK1 enzyme inhibition (substrate: Myelin Basic Protein); parameters: species or system Escherichia coli; conditions: Not Active = under 50% inhibition at 10 µM
[8] = target: T4, Receptor-type tyrosine-protein phosphatase C (Homo sapiens, UniProt P08575); parameters: species or system Escherichia coli
T4 sequence (P08575 whole entry): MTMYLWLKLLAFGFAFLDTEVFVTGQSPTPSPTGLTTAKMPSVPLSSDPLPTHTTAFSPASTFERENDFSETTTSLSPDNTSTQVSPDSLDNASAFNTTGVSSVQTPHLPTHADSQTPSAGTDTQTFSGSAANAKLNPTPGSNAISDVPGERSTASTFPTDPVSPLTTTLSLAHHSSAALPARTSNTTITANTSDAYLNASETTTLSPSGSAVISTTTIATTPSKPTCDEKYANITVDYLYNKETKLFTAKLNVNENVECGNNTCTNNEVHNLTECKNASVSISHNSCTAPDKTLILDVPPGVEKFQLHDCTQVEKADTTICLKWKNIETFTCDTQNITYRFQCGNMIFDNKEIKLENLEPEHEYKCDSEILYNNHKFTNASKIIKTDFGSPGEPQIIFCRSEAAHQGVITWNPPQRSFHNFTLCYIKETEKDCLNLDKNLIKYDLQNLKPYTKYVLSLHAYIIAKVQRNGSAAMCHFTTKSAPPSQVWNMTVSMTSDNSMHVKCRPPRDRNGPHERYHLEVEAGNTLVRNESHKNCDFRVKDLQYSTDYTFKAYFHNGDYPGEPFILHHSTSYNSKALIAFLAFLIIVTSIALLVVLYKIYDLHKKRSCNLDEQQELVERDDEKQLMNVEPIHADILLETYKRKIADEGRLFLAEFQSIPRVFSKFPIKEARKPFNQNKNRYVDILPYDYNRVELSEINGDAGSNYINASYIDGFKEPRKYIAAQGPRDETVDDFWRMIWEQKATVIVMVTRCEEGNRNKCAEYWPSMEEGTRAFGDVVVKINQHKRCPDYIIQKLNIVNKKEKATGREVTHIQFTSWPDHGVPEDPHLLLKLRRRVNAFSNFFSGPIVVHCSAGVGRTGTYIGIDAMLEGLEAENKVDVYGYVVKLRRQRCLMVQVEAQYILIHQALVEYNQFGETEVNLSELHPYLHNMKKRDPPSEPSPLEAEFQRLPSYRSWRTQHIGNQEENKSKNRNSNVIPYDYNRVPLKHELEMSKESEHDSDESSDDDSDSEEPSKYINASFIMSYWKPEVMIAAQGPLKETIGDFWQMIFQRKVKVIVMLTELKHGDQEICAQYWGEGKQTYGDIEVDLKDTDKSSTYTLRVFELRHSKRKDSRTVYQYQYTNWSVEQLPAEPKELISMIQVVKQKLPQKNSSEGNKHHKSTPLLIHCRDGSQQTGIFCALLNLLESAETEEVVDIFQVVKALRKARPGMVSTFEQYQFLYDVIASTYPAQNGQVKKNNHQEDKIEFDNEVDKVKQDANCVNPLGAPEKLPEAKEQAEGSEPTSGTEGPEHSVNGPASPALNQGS

Platelet-activating factor receptor, sequence (P25105 whole entry): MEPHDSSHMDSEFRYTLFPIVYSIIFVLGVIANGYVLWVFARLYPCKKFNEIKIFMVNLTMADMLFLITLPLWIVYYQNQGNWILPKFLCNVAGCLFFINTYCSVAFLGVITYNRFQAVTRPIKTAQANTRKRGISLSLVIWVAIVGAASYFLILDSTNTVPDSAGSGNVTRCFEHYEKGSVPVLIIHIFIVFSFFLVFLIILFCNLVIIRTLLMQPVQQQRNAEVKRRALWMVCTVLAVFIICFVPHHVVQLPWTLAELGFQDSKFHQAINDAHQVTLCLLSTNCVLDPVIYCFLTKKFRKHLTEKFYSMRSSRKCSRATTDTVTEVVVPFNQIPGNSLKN
Mu-type opioid receptor, sequence (P35372 whole entry): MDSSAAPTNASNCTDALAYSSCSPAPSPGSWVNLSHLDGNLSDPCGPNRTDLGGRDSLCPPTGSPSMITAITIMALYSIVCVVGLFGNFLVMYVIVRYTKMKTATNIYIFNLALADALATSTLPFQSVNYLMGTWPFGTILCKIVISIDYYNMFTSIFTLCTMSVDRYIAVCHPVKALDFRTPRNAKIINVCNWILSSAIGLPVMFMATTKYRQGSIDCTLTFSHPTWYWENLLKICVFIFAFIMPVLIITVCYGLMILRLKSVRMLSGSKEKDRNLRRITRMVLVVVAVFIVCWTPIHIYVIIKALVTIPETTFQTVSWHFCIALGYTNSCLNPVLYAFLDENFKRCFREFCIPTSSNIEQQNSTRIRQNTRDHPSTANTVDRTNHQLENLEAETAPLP
Mitogen-activated protein kinase 3, sequence (P27361 whole entry): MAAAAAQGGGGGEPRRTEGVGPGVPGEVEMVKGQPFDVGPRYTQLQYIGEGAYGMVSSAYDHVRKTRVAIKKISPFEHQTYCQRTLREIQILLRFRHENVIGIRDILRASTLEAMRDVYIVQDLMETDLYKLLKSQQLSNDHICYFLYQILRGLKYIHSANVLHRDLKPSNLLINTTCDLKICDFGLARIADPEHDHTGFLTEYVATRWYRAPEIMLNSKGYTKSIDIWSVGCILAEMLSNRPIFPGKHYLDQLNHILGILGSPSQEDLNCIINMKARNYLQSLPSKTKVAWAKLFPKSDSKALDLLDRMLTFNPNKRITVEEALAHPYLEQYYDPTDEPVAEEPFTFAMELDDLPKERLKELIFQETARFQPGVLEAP
Cannabinoid receptor 1, sequence (P21554 whole entry): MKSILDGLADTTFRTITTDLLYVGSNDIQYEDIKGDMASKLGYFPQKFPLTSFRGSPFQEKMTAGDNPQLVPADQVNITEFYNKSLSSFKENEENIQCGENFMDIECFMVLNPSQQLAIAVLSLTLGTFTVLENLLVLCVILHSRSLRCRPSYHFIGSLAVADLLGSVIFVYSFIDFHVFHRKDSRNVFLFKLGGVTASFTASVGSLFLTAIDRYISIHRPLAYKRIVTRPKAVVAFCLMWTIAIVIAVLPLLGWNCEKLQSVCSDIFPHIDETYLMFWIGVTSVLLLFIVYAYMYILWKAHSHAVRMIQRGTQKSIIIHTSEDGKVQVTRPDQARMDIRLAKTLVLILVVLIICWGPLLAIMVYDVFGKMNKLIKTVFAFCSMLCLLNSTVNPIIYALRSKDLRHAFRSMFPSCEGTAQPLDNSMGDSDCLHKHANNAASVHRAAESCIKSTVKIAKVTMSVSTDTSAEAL

CC(C)CC(N(C)C)C1(c2ccc(Cl)cc2)CCC1 (stereo not given) [SIBUTRAMINE]
Not Active: IC50 [1] | Ki [1] | IC50 [2] | Ki [2] | IC50 (Cannabinoid receptor 1) | IC50 [3] | IC50 (D(4) dopamine receptor) | IC50 [4] | Ki [4] | IC50 (Leukotriene C4 synthase) | IC50 (Mu-type opioid receptor) | IC50 [5] | IC50 [6] | Ki [6] | IC50 [7] | IC50 [8]

[H]/N=C(/N)N[C@H]1[C@H](O)[C@@H](O)[C@H](O[C@@H]2O[C@@H](C)[C@](O)(C=O)[C@H]2O[C@@H]2O[C@@H](CO)[C@H](O)[C@@H](O)[C@@H]2NC)[C@@H](N/C(N)=N\[H])[C@@H]1O [STREPTOMYCIN]
Not Active: IC50 [1] | Ki [1] | IC50 [2] | Ki [2] | IC50 (Cannabinoid receptor 1) | IC50 [3] | IC50 (D(4) dopamine receptor) | IC50 [4] | Ki [4] | IC50 (Leukotriene C4 synthase) | IC50 (Mu-type opioid receptor) | IC50 [5] | IC50 [6] | Ki [6] | IC50 [7] | IC50 [8]

COc1cc(NS(=O)(=O)c2ccc(N)cc2)nc(OC)n1 [SULFADIMETHOXINE]
Not Active: IC50 [1] | Ki [1] | IC50 [2] | Ki [2] | IC50 (Cannabinoid receptor 1) | IC50 [3] | IC50 (D(4) dopamine receptor) | IC50 [4] | Ki [4] | IC50 (Leukotriene C4 synthase) | IC50 (Mu-type opioid receptor) | IC50 [5] | IC50 [6] | Ki [6] | IC50 [7] | IC50 [8]

Cc1cc(C)nc(NS(=O)(=O)c2ccc(N)cc2)n1 [SULFAMETHAZINE]
Not Active: IC50 [1] | Ki [1] | IC50 [2] | Ki [2] | IC50 (Cannabinoid receptor 1) | IC50 [3] | IC50 (D(4) dopamine receptor) | IC50 [4] | Ki [4] | IC50 (Leukotriene C4 synthase) | IC50 (Mu-type opioid receptor) | IC50 [5] | IC50 [6] | Ki [6] | IC50 [7] | IC50 [8]

C[C@]1(Cn2ccnn2)[C@H](C(=O)O)N2C(=O)C[C@H]2S1(=O)=O [TAZOBACTAM]
Not Active: IC50 [1] | Ki [1] | IC50 [2] | Ki [2] | IC50 (Cannabinoid receptor 1) | IC50 [3] | IC50 (D(4) dopamine receptor) | IC50 [4] | Ki [4] | IC50 (Leukotriene C4 synthase) | IC50 (Mu-type opioid receptor) | IC50 [5] | IC50 [6] | Ki [6] | IC50 [7] | IC50 [8]

Source: ChEMBL document CHEMBL1909046, “DrugMatrix in vitro pharmacology data”
